Data on 2 compounds can be found in ChEMBL document CHEMBL1151443, “Activity of the novel macrolide BAL19403 against ribosomes from erythromycin-resistant Propionibacterium acnes” (Antimicrob Agents Chemother, 2007).

The test system of test [1] is Cutibacterium acnes. The test is described as follows: Antibacterial activity against erythromycin-resistant Propionibacterium acnes GE4E carrying Erm(X) gene. The test is classed as functional.
The nature of test [2]: Inhibition of ribosomal activity in erythromycin-sensitive Escherichia coli BL21 S30 extracts assessed as inhibition of luciferase activity by transcriptional and translational assay. It is filed as subcellular, Ribosome.
For test [3], the system named is Cutibacterium acnes. The test is described as follows: Antibacterial activity against erythromycin-resistant Propionibacterium acnes with G2057A mutation in domain V of 23S rRNA. It is filed as functional.
Test [4] concerns Cutibacterium acnes. The test is described as follows: Antibacterial activity against erythromycin-resistant Propionibacterium acnes with A2058G mutation in domain V of 23S rRNA. The test is classed as functional.
Test [5] relates to Cutibacterium acnes. The test is described as follows: Antibacterial activity against erythromycin-sensitive Propionibacterium acnes EG7NS. It is filed as functional.
The target of test [6] is Bacterial 70S ribosome. The test is described as follows: Inhibition of ribosomal activity in erythromycin-resistant Propionibacterium acnes P95 with G2057A mutation in domain V of 23S rRNA assessed as luciferase production by transcriptional and translational assay. It is filed as subcellular, Cutibacterium acnes.
In test [7] the test system is Cutibacterium acnes. The test is described as follows: Antibacterial activity against erythromycin-resistant Propionibacterium acnes P95 with 23S rRNA G2057A mutant. The test is classed as functional.
The subject of test [8] is Cutibacterium acnes. The test is described as follows: Antibacterial activity against erythromycin-resistant Propionibacterium acnes with A2059 mutation in domain V of 23S rRNA. It is filed as functional.
The target of test [9] is Bacterial 70S ribosome. The test is described as follows: Inhibition of ribosomal activity in erythromycin-sensitive Escherichia coli BL21 assessed as luciferase production by transcriptional and translational assay. It is filed as subcellular.
Test [10] deals with Bacterial 70S ribosome. The test is described as follows: Inhibition of ribosomal activity in erythromycin-sensitive Propionibacterium acnes EG7NS assessed as luciferase production by transcriptional and translational assay. It is filed as subcellular, Cutibacterium acnes.
Test [11] concerns the target Bacterial 70S ribosome. The test is described as follows: Inhibition of ribosomal activity in erythromycin-resistant Propionibacterium acnes SW54EA with A2058G mutation in domain V of 23S rRNA assessed as luciferase production by transcriptional and translational assay. The test is classed as subcellular, Cutibacterium acnes.
Test [12] has as its system Escherichia coli. The test is described as follows: Antibacterial activity against Escherichia coli BL21. It is filed as functional.
For test [13], the target named is Bacterial 70S ribosome. The test is described as follows: Displacement of [14C]ERY from erythromycin-sensitive Escherichia coli BL21 ribosome. It is filed as subcellular. Background: In a radioligand displacement assay an active substance lowers the binding of a labelled ligand.
For test [14], the target named is Bacterial 70S ribosome (Bacteria) (UniProt P0A7V0+P60723+P0AG67+P0A7R5+P0A7R9+P0A7S3+P0A7S9+P0AG59+P0ADZ4+P0A7T3+P0AG63+P0A7T7+P0A7U3+P0A7U7+P68679+P0A7V3+P0A7V8+P0A7W1+P02358+P02359+P0A7W7+P0A7X3+P0A7J3+P0A7J7+P0AA10+P0ADY3+P02413+P0ADY7+P0AG44+P0C018+P0A7K6+P0A7L0+P0A7L3+P0AG48+P61175+P0ADZ0+P60624+P68919+P0A7L8+P0A7M2+P0A7M6+P60422+P0AG51+P0A7N1+P0A7M9+P0A7N4+P0A7N9+P0A7P5+P0A7Q1+Q2EEQ2+P0A7Q6+P60438+P62399+P0AG55+P0A7K2). The test is described as follows: (§1) Inhibition of ribosomal activity in erythromycin-resistant Propionibacterium acnes GE4E carrying Erm(X) gene assessed as luciferase production by transcriptional and translational assay. The test is classed as subcellular. The conditions noted are these: Cutibacterium acnes, concentration not given here.

In test [15] the target is Bacterial 70S ribosome. The test is described as §1. The test is classed as subcellular, Cutibacterium acnes.
For test [16], the target named is Bacterial 70S ribosome. The test is described as follows: Displacement of [14C]ERY from erythromycin-sensitive Propionibacterium acnes EG7NS ribosome. The test is classed as subcellular, Cutibacterium acnes.
In test [17] the target is Bacterial 70S ribosome. The test is described as follows: Displacement of [14C]ERY from ribosome in erythromycin-resistant Propionibacterium acnes P95 with G2057A mutation in domain V of 23S rRNA. It is filed as subcellular, Cutibacterium acnes.
For test [18], the system named is Cutibacterium acnes. The test is described as follows: Antibacterial activity against erythromycin-resistant Propionibacterium acnes SW54EA with 23S rRNA A2058G mutant. The test is classed as functional.

Usually MIC stands for the least concentration at which growth counts as inhibited. Read a high MIC as a need for much substance. In general, IC50 refers to the point on the concentration scale where inhibition reaches its midpoint. As usually defined, the Kd is the equilibrium constant for the complex coming apart. High values mean a looser complex, low ones a tighter complex. The term inhibition denotes the change of the read-out against control, counted positive when it falls.

≈ marks a conversion by molar mass, not a printed value.

For the compound `CC[C@H]1OC(=O)[C@H](C)[C@@H](O[C@H]2C[C@@](C)(OC)[C@@H](O)[C@H](C)O2)[C@H](C)[C@@H](O[C@@H]2O[C@H](C)C[C@H](N(C)C)[C@H]2O)[C@](C)(O)C[C@@H](C)C(=O)[C@H](C)[C@@H](O)[C@]1(C)O` [ERYTHROMYCIN], the MIC is over 512 µg/mL in test [1]; 1 µg/mL (≈ 1.36 µM) in [3]; over 128 µg/mL in test [4]; at most 0.06 µg/mL in [5]; 4 µg/mL (≈ 5.45 µM) in test [7]; over 128 µg/mL in test [8]. The MIC in test [12] was 128 µg/mL (≈ 174 µM); in [18], over 512 µg/mL. Also, the IC50 in test [2] was found to be 2130 nM; in test [6], 2200 nM; in [9], 760 nM; in test [10] it was 170 nM; in [11], 87000 nM; in test [15], 1900 nM. The Kd is 11 nM in [13], 29 nM in test [16] and over 2100 nM in [17]. Besides, the inhibition in test [14] is 52%.

Regarding `CC[C@H]1OC(=O)[C@H](C)[C@@H](O[C@H]2C[C@@](C)(OC)[C@@H](O)[C@H](C)O2)[C@H](C)[C@@H](O[C@@H]2O[C@H](C)C[C@H](N(C)C)[C@H]2O)[C@](C)(OC)C[C@@H](C)C(=O)[C@H](C)[C@H]2[C@H](SCCn3cnc4cccnc43)C(=O)O[C@@]21C`, the IC50 in test [2] stood at 850 nM; in test [6] it was 120 nM; in [9], 420 nM; in test [10], 110 nM; in test [11], 260 nM; in test [15], 190 nM. In test [13], this compound had a Kd of 26 nM. Further, the inhibition in test [14] turned out to be 48%.
